Calls of active or inactive are those of the source. The rule behind the calls is not given here.
Assays:
[1] = Toxicity in Balb/c mouse wound infection model infected with Pseudomonas aeruginosa PAO1 assessed as body weight change at 50 uM,TOP for 3 days in Tobramycin; details: in vivo, topical_or_ocular, 72 h, time 3 day
[2] = Inhibition of quorum sensing system in Pseudomonas aeruginosa PAO1-rhlA-gfp assessed as inhibition of GFP fluorescence expression at 1.25 to 20 uM and measured for 12 hrs at 15 mins interval by fluorescence assay; details: dose 1.25-20 µM
Pseudomonas aeruginosa [3] = test: Downregulation of rhl expression in Pseudomonas aeruginosa PAO1 at 20 uM incubated for 24 hrs by RNA sequencing analysis; assay type: functional
[4] = Toxicity in Zebrafish embryo assessed as survival rate of zebrafish larvae at 10 to 200 uM and mesured upto 120 hrs post fertilization; set-up: species or system Danio rerio; details: in vivo, dose 10-200 µM
[5] = target: T1, HTH-type quorum-sensing regulator RhlR (Pseudomonas aeruginosa (strain ATCC 15692 / PAO1 / 1C / PRS 101 / LMG12228)) (UniProt P54292); test: Inhibition of RhlR-mediated quorum sensing system in Pseudomonas aeruginosa PAO1 assessed as inhibition of pyocyanin production at 1.25 to 20 uM incubated for 24 hrs by absorbance based assay; details: dose 1.25-20 µM
T1 sequence (whole entry): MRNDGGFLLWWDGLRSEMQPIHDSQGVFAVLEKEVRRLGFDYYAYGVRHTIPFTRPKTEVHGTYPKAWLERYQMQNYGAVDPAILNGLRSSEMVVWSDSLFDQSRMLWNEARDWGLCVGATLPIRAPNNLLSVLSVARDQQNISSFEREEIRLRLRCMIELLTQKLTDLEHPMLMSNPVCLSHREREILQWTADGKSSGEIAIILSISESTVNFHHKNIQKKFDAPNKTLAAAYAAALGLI

Pseudomonas aeruginosa [6] = test: Downregulation of pilB expression in Pseudomonas aeruginosa PAO1 at 20 uM incubated for 24 hrs by RNA sequencing analysis; assay type: functional
Pseudomonas aeruginosa [7] = test: Downregulation of phyllo expression in Pseudomonas aeruginosa PAO1 at 20 uM incubated for 24 hrs by RNA sequencing analysis; assay type: functional
Pseudomonas aeruginosa [8] = test: Upregulation of pchB expression in Pseudomonas aeruginosa PAO1 at 20 uM incubated for 24 hrs by RNA sequencing analysis; assay type: functional
Pseudomonas aeruginosa [9] = test: Downregulation of pqsA expression in Pseudomonas aeruginosa PAO1 at 20 uM incubated for 24 hrs by RNA sequencing analysis; assay type: functional
[10] = Toxicity in Balb/c mouse wound infection model infected with Pseudomonas aeruginosa PAO1 assessed as morphological changes in spleen at 50 uM,TOP for 3 days in Ciprofloxacin by H and E staining based analysis; assay type: tissue-based; details: in vivo, topical_or_ocular, 72 h, time 3 day
Pseudomonas aeruginosa [11] = test: Antibacterial activity against Pseudomonas aeruginosa PAO1 in ABTGC medium assessed as bacterial growth inhibition at 1.25 to 20 uM incubated for 16 hrs; assay type: functional, organism-based; details: dose 1.25-20 µM
Pseudomonas aeruginosa [12] = test: Downregulation of pilT expression in Pseudomonas aeruginosa PAO1 at 20 uM incubated for 24 hrs by RNA sequencing analysis; assay type: functional
Pseudomonas aeruginosa [13] = test: Synergistic antibacterial activity against Pseudomonas aeruginosa PAO1 infected in Balb/c mouse wound infection model assessed as reduction in bacterial survival rate at wounded area at 50 uM,TOP QD for 3 days in presence of Ciprofloxacin by CFU assay; assay type: functional; details: time 3 day
Pseudomonas aeruginosa [14] = test: Downregulation of rhlB expression in Pseudomonas aeruginosa PAO1 at 20 uM incubated for 24 hrs by RNA sequencing analysis; assay type: functional
Pseudomonas aeruginosa [15] = test: Downregulation of mexA expression in Pseudomonas aeruginosa PAO1 at 20 uM incubated for 24 hrs by RNA sequencing analysis; assay type: functional
Pseudomonas aeruginosa [16] = test: Downregulation of pilD expression in Pseudomonas aeruginosa PAO1 at 20 uM incubated for 24 hrs by RNA sequencing analysis; assay type: functional
[17] = Toxicity in Balb/c mouse wound infection model infected with Pseudomonas aeruginosa PAO1 assessed as morphological changes in heart at 50 uM,TOP for 3 days in Tobramycin by H and E staining based analysis; assay type: tissue-based; details: in vivo, topical_or_ocular, 72 h, time 3 day
[18] = Toxicity in Balb/c mouse wound infection model infected with Pseudomonas aeruginosa PAO1 assessed as morphological changes in spleen at 50 uM,TOP for 3 days in Tobramycin by H and E staining based analysis; assay type: tissue-based; details: in vivo, topical_or_ocular, 72 h, time 3 day
Pseudomonas aeruginosa [19] = test: Synergistic antibacterial activity against Pseudomonas aeruginosa PAO1 infected in Balb/c mouse wound infection model assessed as healing degree of wound at 50 uM […],TOP QD for 3 days in presence of Ciprofloxacin; assay type: functional, organism-based; details: time 3.0 day
Pseudomonas aeruginosa [20] = test: Upregulation of pvdF expression in Pseudomonas aeruginosa PAO1 at 20 uM incubated for 24 hrs by RNA sequencing analysis; assay type: functional
[21] = target: T2, Transcriptional regulator MvfR (Pseudomonas aeruginosa PA14) (UniProt A0A072ZLE6); test: Inhibition of PqsR-mediated quorum sensing system in Pseudomonas aeruginosa PAO1 assessed as inhibition of pyocyanin production at 1.25 to 20 uM incubated for 24 hrs by absorbance based assay; details: dose 1.25-20 µM
T2 sequence (whole entry): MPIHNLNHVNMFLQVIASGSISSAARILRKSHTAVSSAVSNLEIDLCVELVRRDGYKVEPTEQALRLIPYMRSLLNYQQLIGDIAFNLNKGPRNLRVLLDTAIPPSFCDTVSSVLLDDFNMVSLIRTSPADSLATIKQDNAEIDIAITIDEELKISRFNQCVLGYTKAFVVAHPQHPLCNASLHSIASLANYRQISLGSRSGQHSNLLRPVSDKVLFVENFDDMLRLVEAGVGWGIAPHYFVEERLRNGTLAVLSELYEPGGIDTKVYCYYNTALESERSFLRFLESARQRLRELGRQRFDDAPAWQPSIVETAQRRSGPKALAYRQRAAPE

Pseudomonas aeruginosa [22] = test: Downregulation of rhlA expression in Pseudomonas aeruginosa PAO1 at 20 uM incubated for 24 hrs by RNA sequencing analysis; assay type: functional
Pseudomonas aeruginosa [23] = test: Downregulation of filA expression in Pseudomonas aeruginosa PAO1 at 20 uM incubated for 24 hrs by RNA sequencing analysis; assay type: functional
[24] = Toxicity in Balb/c mouse wound infection model infected with Pseudomonas aeruginosa PAO1 assessed as morphological changes in lung at 50 uM,TOP for 3 days in Ciprofloxacin by H and E staining based analysis; assay type: tissue-based; details: in vivo, topical_or_ocular, 72 h, time 3 day
Pseudomonas aeruginosa [25] = test: Synergistic antibacterial activity against Pseudomonas aeruginosa PAO1 infected in Balb/c mouse wound infection model assessed as reduction in bacterial survival rate at wounded area at 50 uM,TOP QD for 3 days in presence of Tobramycin by CFU assay; assay type: functional; details: time 3 day
[26] = Toxicity in Balb/c mouse wound infection model infected with Pseudomonas aeruginosa PAO1 assessed as morphological changes in kidney at 50 uM,TOP for 3 days in Tobramycin by H and E staining based analysis; assay type: tissue-based; details: in vivo, topical_or_ocular, 72 h, time 3 day
[27] = Inhibition of quorum sensing system in Pseudomonas aeruginosa PAO1-gfp assessed as inhibition of GFP fluorescence expression at 1.25 to 20 uM and measured for 12 hrs at 15 mins interval by fluorescence assay; details: dose 1.25-20 µM

## Cc1ccc2oc(=O)cc(OCCCCCCC(=O)NO)c2c1
[1]
  Activity: Non-Toxic
[2]
  inhibition: inactive
Pseudomonas aeruginosa [3]
  Activity: Active
[4]
  Activity: Non-Toxic
[5]
  inhibition: inactive
Pseudomonas aeruginosa [6]
  Activity: Active
Pseudomonas aeruginosa [7]
  Activity: Active
Pseudomonas aeruginosa [8]
  Activity: Active
Pseudomonas aeruginosa [9]
  Activity: Active
[10]
  Activity: Non-Toxic
Pseudomonas aeruginosa [11]
  Activity: inactive
Pseudomonas aeruginosa [12]
  Activity: Active
Pseudomonas aeruginosa [13]
  Activity: 3.19%
Pseudomonas aeruginosa [14]
  Activity: Active
Pseudomonas aeruginosa [15]
  Activity: Active
Pseudomonas aeruginosa [16]
  Activity: Active
[17]
  Activity: Non-Toxic
[18]
  Activity: Non-Toxic
Pseudomonas aeruginosa [19]
  Activity: Active
Pseudomonas aeruginosa [20]
  Activity: Active
[21]
  inhibition: Dose-Dependent Effect
Pseudomonas aeruginosa [22]
  Activity: Active
Pseudomonas aeruginosa [23]
  Activity: Active
[24]
  Activity: Non-Toxic
Pseudomonas aeruginosa [25]
  Activity: 1.78%
[26]
  Activity: Non-Toxic
[27]
  inhibition: inactive

Reference: ChEMBL document CHEMBL5370649, “Novel Coumarin Derivatives Inhibit the Quorum Sensing System and Iron Homeostasis as Antibacterial Synergists against Pseudomonas aeruginosa” (J Med Chem, 2023)
